Reference: patent US20240239806A1, “COMPOUNDS, COMPOSITIONS AND METHODS OF TREATING DISORDERS” (Chengdu Anticancer Bioscience, Ltd., priority 2021, published 2024)
“Also recorded” adds a separate entry of the source. Like-named read-outs stand apart in the source and are kept apart here.

Tests used:
Human Cancer Cells = test: Anchorage-independent growth in 3D culture (FIG. 3); format: cell-based; conditions: FIG. 3 legend, cell line not named
Description: (§1) Measuring the ability of cells to grow in soft agar has been popularly believed as the gold standard assay for cellular transformation in vitro. In the Soft Agar Assay, cells grow from single cells to cell colonies in a semi-solid agar solution that keeps them away from the solid surface and allows growth in an anchorage-independent way.
(§2) The anchorage-independent growth of cells is one of the hallmarks of cancer cells. Normal epithelial cells are supported by basement membranes that provide survival and proliferative signals while undergo a type of apoptosis called anoikis when lose their attachment to the extracellular matrix. Cancer cells, in contrast, evade detachment-induced apoptosis, leading to uncontrolled proliferation and metastasis. The Soft Agar Colony Formation Assay allows testing of the therapeutic efficacy of compounds against anchorage-independent 3D growth of cancer cells in vin. The assay was performed in 6-well plates with two layers of agar. For the first, 0.75% agar in DMEM medium was melted in a microwave oven and poured to form a bottom layer. Once solidified, 10-100K cells in 1 ml of DMEM containing 0.35% agar was added to form the top layer, which was later covered with 0.5 ml of DMEM. Cell culture medium was changed once every two days until colonies were ready to photograph. We test the antitumor activity of select compounds in soft agar colony formation assays. […] The suppression of growth of these three cancer cell lines in 3D culture is consistent with the potent impact of these compounds on cellular proliferation in 2D culture.

NCI-H23 [1] = test: MTT assay of cellular proliferation; format: cell-based; conditions: Homo sapiens, 50% inhibition of cellular proliferation
Summary of the method: (§3)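 Cells grew in DMEM with 5% FBS, 2 mM L-glutamine and 1 mM pyruvate at 37 °C, 5% CO2, were seeded to 20-30% confluence over 15-24 h, then exposed to compound at 1 nM to 30 μM. MTT was added for 3-4 h; solubilized formazan was read at 570 nm and EC50 taken as 50% inhibition of proliferation.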

HCT116 [2] = test: MTT assay of cellular proliferation; format: cell-based; conditions: Homo sapiens, HCT-116, 50% inhibition of cellular proliferation
Summary of the method: as §3

NCI-H596 [3] = test: MTT assay of cellular proliferation; format: cell-based; conditions: Homo sapiens, 50% inhibition of cellular proliferation
Summary of the method: as §3

T2 HCC [4] = test: MTT assay of cellular proliferation; format: cell-based; conditions: Mus musculus, 50% inhibition of cellular proliferation
Summary of the method: as §3

NCI-H460 [5] = test: MTT assay of cellular proliferation; format: cell-based; conditions: Homo sapiens, 50% inhibition of cellular proliferation
Summary of the method: as §3

MDA-MB-231 [6] = test: MTT assay of cellular proliferation; format: cell-based; conditions: Homo sapiens; MDA-MB-231, MTT, 50% inhibition of cellular proliferation
Summary of the method: as §3

Hela [7] = test: MTT assay of cellular proliferation; format: cell-based; conditions: Homo sapiens, 50% inhibition of cellular proliferation
Summary of the method: as §3

T98G [8] = test: MTT assay of cellular proliferation; format: cell-based; conditions: Homo sapiens, 50% inhibition of cellular proliferation
Summary of the method: as §3

[9] = tested on: cervical cancer cell line Hela; test: Soft agar colony formation assay; format: cell-based, human
Description: as §1, §2

HCT116 [10] = test: MECP in cancer cell line; format: cell-based; conditions: Homo sapiens, HCT-116
Summary of the method: (§4)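 Cancer lines were grown in DMEM with 5% FBS, 2 mM L-glutamine and 1 mM sodium pyruvate at 37 °C, 5% CO2, then exposed to compound from 1 nM to 30 μM. High-content imaging at 24, 48 or 72 h scored mitotic arrest or DNA-content change; values binned A–D.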

NCI-H596 [11] = test: MECP in cancer cell line; format: cell-based; conditions: Homo sapiens
Summary of the method: as §4

T2 HCC [12] = test: MECP in cancer cell line; format: cell-based; conditions: Mus musculus
Summary of the method: as §4

NCI-H460 [13] = test: MECP in cancer cell line; format: cell-based; conditions: Homo sapiens
Summary of the method: as §4

MDA-MB-231 [14] = test: MECP in cancer cell line; format: cell-based; conditions: Homo sapiens
Summary of the method: as §4

Hela [15] = test: MECP in cancer cell line; format: cell-based; conditions: Homo sapiens
Summary of the method: as §4

T98G [16] = test: MECP in cancer cell line; format: cell-based; conditions: Homo sapiens
Summary of the method: as §4

NCI-H23 [17] = test: MECP in cancer cell line; format: cell-based; conditions: Homo sapiens
Summary of the method: as §4

RPEMYC^H2B-GFP cells = test: Phenotypic screening assay (mitotic arrest, polyploidy); format: cell-based; conditions: 1 nM to 30 μM; for IC50: read-out: Proliferative arrest (>50%)
Summary of the method: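 RPE cells expressing MYC and H2B-EGFP treated with compound at 1 nM–30 μM; mitotic index scored at 24 h and polyploidy (DNA content) at 48 h by automated imaging, with reads at 24, 48 or 72 h. Hits show transient mitotic arrest followed by polyploid accumulation.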

[18] = tested on: human breast cancer cell line MDA-MB-231; test: Xenograft assay; format: in vivo; conditions: MDA-MB-231 xenograft, Nu/Nu mice, 25 mg/kg oral gavage twice a day for 7 days
Protocol: (§5) Xenografts were initiated in immunocompromised (Nu/Nu) mice with the human lung adenocarcinoma cell line NCI-H23 (FIG. 4A) and the human breast cancer cell line MDA-MB-231 (FIG. 4B). Seven million cells were injected subcutaneously into each mouse and treatment was initiated when the average tumor volumes reached 150 mm3 (n=5/group). Tumor-bearing mice were randomized into different groups to receive either vehicle or indicated compounds. The compounds were administered through oral gavage twice a day for 7 days. For these experiments, all compounds were first dissolved in DMSO and then diluted 1:10 into a mixture containing 50% PEG300 and 49% PBS, 1% Tween 80, pH2.2. 100 ul of drug solution was administered with each dose to each a dose of 25 mg/kg. Tumor volumes were determined from digital caliper raw data by using the formula: Volume (mm3)=(L×W^2)/2. The value W (Width) is the smaller of two perpendicular tumor axes and the value L (Length) is the larger of two perpendicular axes. Mean tumor volumes were calculated for each treatment group at the start point (day 0) and the endpoint (day 7). The percentage change of tumor volumes, defined as (Tumor […]˜Tumor Volume^day0)/Tumor Volume^day0×100% is presented.

[19] = tested on: human lung adenocarcinoma cell line NCI-H23; test: Xenograft assay; format: in vivo; conditions: Nu/Nu mice, 25 mg/kg oral gavage twice a day for 7 days
Protocol: as §5

NCI-N87 [20] = test: MTT assay of cellular proliferation; format: cell-based; conditions: Homo sapiens, 50% inhibition of cellular proliferation
Summary of the method: as §3

SW480 [21] = test: MTT assay of cellular proliferation; format: cell-based; conditions: Homo sapiens, 50% inhibition of cellular proliferation
Summary of the method: as §3

A549 [22] = test: MTT assay of cellular proliferation; format: cell-based; conditions: Homo sapiens, 50% inhibition of cellular proliferation
Summary of the method: as §3

SW480 [23] = test: MECP in cancer cell line; format: cell-based; conditions: Homo sapiens
Summary of the method: as §4

A549 [24] = test: MECP in cancer cell line; format: cell-based; conditions: Homo sapiens
Summary of the method: as §4

NCI-N87 [25] = test: MECP in cancer cell line; format: cell-based; conditions: Homo sapiens
Summary of the method: as §4

[26] = read-out: Min. Effective conc. for Polyploidy (≥5%)

| Structure (SMILES) | EC50 (NCI-H23 [1]) [nM] | EC50 (HCT116 [2]) [nM] | EC50 (T2 HCC [4]) [nM] | EC50 (MDA-MB-231 [6]) [nM] | EC50 (Hela [7]) [nM] | EC50 (SW480 [21]) [nM] | EC50 (A549 [22]) [nM] | minimal effective concentration (HCT116 [10]) [µM] | minimal effective concentration (T2 HCC [12]) [µM] | minimal effective concentration (MDA-MB-231 [14]) [µM] | minimal effective concentration (Hela [15]) [µM] | minimal effective concentration (NCI-H23 [17]) [µM] | minimal effective concentration (RPEMYC^H2B-GFP cells; [26]) [µM] | minimal effective concentration (RPEMYC^H2B-GFP cells; read-out: Mitotic Arrest (≥5%)) [µM] | IC50 (RPEMYC^H2B-GFP cells) [nM] | tumor growth (percentage change of tumor volumes) [18] | tumor growth (percentage change of tumor volumes) [19] | EC50 (NCI-N87 [20]) [nM] | minimal effective concentration (SW480 [23]) [µM] | minimal effective concentration (A549 [24]) [µM] | further results |
| --- | --- | --- | --- | --- | --- | --- | --- | --- | --- | --- | --- | --- | --- | --- | --- | --- | --- | --- | --- | --- | --- |
| COc1cc(Oc2ccnc3cc(OC)c(OC)cc23)cc(-n2cccn2)c1 [Compound 26, 6,7-dimethoxy-4-(3-methoxy-5-(1H-pyrazol-1-yl)phenoxy)quinoline] | 1 to 1000 | 1 to 1000 | 1 to 1000 | 1 to 1000 | 1 to 1000 | 1 to 1000 | 1 to 1000 | 0.001 to 1 | 0.001 to 1 | 0.001 to 1 | 0.001 to 1 | 0.001 to 1 | 0.001 to 1 | 0.001 to 1 | 1 to 1000 | suppress the growth; also recorded: suppressing the tumor growth | suppress the growth; also recorded: suppressing the tumor growth | 1 to 1000 | 0.001 to 1 | 0.001 to 1 | minimal effective concentration (NCI-N87 [25]): 0.001 to 1 µM |
| COc1cc(Oc2ccnc3ccsc23)cc(-n2cccn2)c1 [Compound 40, 7-(3-methoxy-5-(1H-pyrazol-1-yl)phenoxy)thieno[3,2-b]pyridine] | 1 to 1000 | 1 to 1000 | 1 to 1000 | 1 to 1000 | 1 to 1000 | 1 to 1000 | 1 to 1000 | 0.001 to 1 | 0.001 to 1 | 0.001 to 1 | 0.001 to 1 | 0.001 to 1 | 0.001 to 1 | 0.001 to 1 | 1 to 1000 | suppress the growth; also recorded: suppressing the tumor growth | suppress the growth; also recorded: suppressing the tumor growth | 1 to 1000 | 0.001 to 1 | 0.001 to 1 | minimal effective concentration (NCI-N87 [25]): 0.001 to 1 µM |
| COc1cc(NC(C)=O)cc(Oc2ccnc3ccsc23)c1 [Compound 43, N-(3-methoxy-5-(thieno[3,2-b]pyridin-7-yloxy)phenyl)acetamide] | 1 to 1000 | 1 to 1000 | 1 to 1000 | 1 to 1000 | 1 to 1000 | 1 to 1000 | 1 to 1000 | 0.001 to 1 | 0.001 to 1 | 0.001 to 1 | 0.001 to 1 | 0.001 to 1 | 0.001 to 1 | 0.001 to 1 | 1 to 1000 | suppress the growth; also recorded: suppressing the tumor growth and even eliciting tumor regression | suppress the growth; also recorded: suppressing the tumor growth and even eliciting tumor regression | 1 to 1000 | 0.001 to 1 | 0.001 to 1 | minimal effective concentration (NCI-N87 [25]): 0.001 to 1 µM |

The next lines start with results.

| EC50 (NCI-H23 [1]) [nM] | EC50 (HCT116 [2]) [nM] | EC50 (T2 HCC [4]) [nM] | EC50 (MDA-MB-231 [6]) [nM] | EC50 (Hela [7]) [nM] | EC50 (SW480 [21]) [nM] | EC50 (A549 [22]) [nM] | Structure (SMILES) | minimal effective concentration (HCT116 [10]) [µM] | minimal effective concentration (T2 HCC [12]) [µM] | minimal effective concentration (MDA-MB-231 [14]) [µM] | minimal effective concentration (Hela [15]) [µM] | minimal effective concentration (NCI-H23 [17]) [µM] | minimal effective concentration (RPEMYC^H2B-GFP cells; [26]) [µM] | minimal effective concentration (RPEMYC^H2B-GFP cells; read-out: Mitotic Arrest (≥5%)) [µM] | IC50 (RPEMYC^H2B-GFP cells) [nM] | tumor growth (percentage change of tumor volumes) [18] | tumor growth (percentage change of tumor volumes) [19] | EC50 (NCI-N87 [20]) [nM] | minimal effective concentration (SW480 [23]) [µM] | minimal effective concentration (A549 [24]) [µM] | further results |
| --- | --- | --- | --- | --- | --- | --- | --- | --- | --- | --- | --- | --- | --- | --- | --- | --- | --- | --- | --- | --- | --- |
| 1 to 1000 | 1 to 1000 | 1 to 1000 | 1 to 1000 | 1 to 1000 |  |  | COC(=O)c1cc(Oc2ccnc3ccccc23)cc(C(=O)OC)c1 [Compound 15, dimethyl 5-(quinolin-4-yloxy)isophthalate] | 0.001 to 1 | 0.001 to 1 | 0.001 to 1 | 0.001 to 1 | 0.001 to 1 | 0.001 to 1 | 0.001 to 1 | 1 to 1000 |  |  |  |  |  | Anchorage-independent Growth of Human Cancer Cells in 3D Culture (Human Cancer Cells): Suppress the Anchorage-independent Growth; EC50 (NCI-H596 [3]): 1000 to 10000 nM; EC50 (NCI-H460 [5]): > 30000 nM; EC50 (T98G [8]): 1000 to 10000 nM; anchorage-independent growth in soft agar [9]: effectively suppressed the anchorage-independent growth; minimal effective concentration (NCI-H596 [11]): 0.001 to 1 µM; minimal effective concentration (NCI-H460 [13]): 1 to 10 µM; minimal effective concentration (T98G [16]): 1 to 10 µM |
| 1 to 1000 | 1 to 1000 | 1 to 1000 | 1 to 1000 | 1 to 1000 | 1 to 1000 | 1 to 1000 | COc1cc(Oc2ccnc3ccc(Br)cc23)cc(-n2cccn2)c1 [Compound 21, 6-bromo-4-(3-methoxy-5-(1H-pyrazol-1-yl)phenoxy)quinoline] | 0.001 to 1 | 0.001 to 1 | 0.001 to 1 | 0.001 to 1 | 0.001 to 1 | 0.001 to 1 | 0.001 to 1 | 1 to 1000 | suppress the growth; also recorded: suppressing the tumor growth | suppress the growth; also recorded: suppressing the tumor growth | 1 to 1000 | 0.001 to 1 | 0.001 to 1 | minimal effective concentration (NCI-N87 [25]): 0.001 to 1 µM |
